# Data as given in US20230365592A1 (Agios Pharmaceuticals, Inc., priority 2022, published 2023).
# Biological target: T1, human PAH with the R408W mutation (Homo sapiens, UniProt P00439, R408W)
# T1 construct: expressed in transfected cells
# T1 sequence (P00439 1-452 R408W): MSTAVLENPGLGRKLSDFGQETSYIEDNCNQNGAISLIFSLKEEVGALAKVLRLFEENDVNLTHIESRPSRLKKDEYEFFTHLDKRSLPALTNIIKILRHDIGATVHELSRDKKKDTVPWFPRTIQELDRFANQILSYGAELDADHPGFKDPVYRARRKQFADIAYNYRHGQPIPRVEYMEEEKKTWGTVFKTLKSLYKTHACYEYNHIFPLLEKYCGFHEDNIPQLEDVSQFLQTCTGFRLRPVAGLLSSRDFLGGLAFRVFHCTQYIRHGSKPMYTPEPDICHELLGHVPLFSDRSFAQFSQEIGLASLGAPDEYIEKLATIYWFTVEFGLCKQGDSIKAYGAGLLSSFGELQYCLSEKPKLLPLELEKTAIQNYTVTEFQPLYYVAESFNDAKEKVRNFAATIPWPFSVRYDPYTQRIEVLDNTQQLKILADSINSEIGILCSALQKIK
# Assay: Cell Based Phenylalanine Flux Assay;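 also: after compound treatment, cells received sepiapterin plus isotope-labelled Phenylalanine for 4 hours, then labelled Tyrosine in the medium was quantified, 10-point 2-fold dilution series run in duplicate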
# Conditions: A375 cells expressing human R408W PAH; 24 hrs compound incubation; 13C-Tyrosine by LC-MS; average where tested multiple times; read-out: AC50
row,AC50,SMILES
1,< 0.5 µM,"CC(C)(O)c1nc(C(F)(F)F)c(C(=O)N2CCc3[nH]cnc3[C@H]2c2cc3cccc(Cl)n3n2)o1 [Example 1192, (S)-(4-(7-chloropyrazolo[1,5-a]pyridin-2-yl)-6,7-dihydro-1H-imidazo[4,5-c]pyridin-5(4H)-yl)(2-(2-hydroxypropan-2-yl)-4-(trifluoromethyl)oxazol-5-yl)methanone]"
2,1 to 5 µM,"CC(C)(O)c1nc(C(F)(F)F)c(C(=O)N2CCc3[nH]cnc3[C@@H]2c2cc3cccc(Cl)n3n2)o1 [Example 1193, (R)-(4-(7-chloropyrazolo[1,5-a]pyridin-2-yl)-6,7-dihydro-1H-imidazo[4,5-c]pyridin-5(4H)-yl)(2-(2-hydroxypropan-2-yl)-4-(trifluoromethyl)oxazol-5-yl)methanone]"
3,1 to 5 µM,"C[C@H](O)c1nc(C(F)F)c(C(=O)N2CCc3[nH]cnc3[C@@H]2c2cc3cccc(Cl)n3n2)o1 [Example 1194, ((R)-4-(7-chloropyrazolo[1,5-a]pyridin-2-yl)-6,7-dihydro-1H-imidazo[4,5-c]pyridin-5(4H)-yl)(4-(difluoromethyl)-2-((S)-1-hydroxyethyl)oxazol-5-yl)methanone]"
4,0.5 to 1 µM,"C[C@H](O)c1nc(C(F)F)c(C(=O)N2CCc3[nH]cnc3[C@H]2c2cc3cccc(Cl)n3n2)o1 [Example 1195, ((S)-4-(7-chloropyrazolo[1,5-a]pyridin-2-yl)-6,7-dihydro-1H-imidazo[4,5-c]pyridin-5(4H)-yl)(4-(difluoromethyl)-2-((S)-1-hydroxyethyl)oxazol-5-yl)methanone]"
5,1 to 5 µM,"C[C@@H](O)c1nc(C(F)F)c(C(=O)N2CCc3[nH]cnc3[C@@H]2c2cc3cccc(Cl)n3n2)o1 [Example 1197, ((R)-4-(7-chloropyrazolo[1,5-a]pyridin-2-yl)-6,7-dihydro-1H-imidazo[4,5-c]pyridin-5(4H)-yl)(4-(difluoromethyl)-2-((R)-1-hydroxyethyl)oxazol-5-yl)methanone]"
6,0.5 to 1 µM,"C[C@H](O)c1nc(C(F)F)c(C(=O)N2CCc3[nH]cnc3[C@H]2c2cc3cccc(C(F)(F)F)n3n2)o1 [Example 1200, (4-(difluoromethyl)-2-((S)-1-hydroxyethyl)oxazol-5-yl)((S)-4-(7-(trifluoromethyl)pyrazolo[1,5-a]pyridin-2-yl)-6,7-dihydro-1H-imidazo[4,5-c]pyridin-5(4H)-yl)methanone]"
7,0.5 to 1 µM,"C[C@H](O)c1nc(C(F)F)c(C(=O)N2CCc3[nH]cnc3[C@@H]2c2cc3cccc(C(F)(F)F)n3n2)o1 [Example 1201, (4-(difluoromethyl)-2-((S)-1-hydroxyethyl)oxazol-5-yl)((R)-4-(7-(trifluoromethyl)pyrazolo[1,5-a]pyridin-2-yl)-6,7-dihydro-1H-imidazo[4,5-c]pyridin-5(4H)-yl)methanone]"
8,< 0.5 µM,"O=C(c1ocnc1C(F)F)N1CCc2[nH]cnc2[C@H]1c1cc2cccc(F)n2n1 [Example 1202, (S)-(4-(difluoromethyl)oxazol-5-yl)(4-(7-fluoropyrazolo[1,5-a]pyridin-2-yl)-6,7-dihydro-1H-imidazo[4,5-c]pyridin-5(4H)-yl)methanone]"
9,1 to 5 µM,"O=C(c1ocnc1C(F)F)N1CCc2[nH]cnc2[C@@H]1c1cc2cccc(F)n2n1 [Example 1203, (R)-(4-(difluoromethyl)oxazol-5-yl)(4-(7-fluoropyrazolo[1,5-a]pyridin-2-yl)-6,7-dihydro-1H-imidazo[4,5-c]pyridin-5(4H)-yl)methanone]"
10,< 0.5 µM,"Cc1c(-c2nnc(C(=O)N3CCc4[nH]cnc4[C@H]3c3cc4c(C(F)(F)F)cccn4n3)o2)cnn1C [Example 1204, (S)-(5-(1,5-dimethyl-1H-pyrazol-4-yl)-1,3,4-oxadiazol-2-yl)(4-(4-(trifluoromethyl)pyrazolo[1,5-a]pyridin-2-yl)-6,7-dihydro-1H-imidazo[4,5-c]pyridin-5(4H)-yl)methanone]"
11,> 5 µM,"Cc1c(-c2nnc(C(=O)N3CCc4[nH]cnc4[C@@H]3c3cc4c(C(F)(F)F)cccn4n3)o2)cnn1C [Example 1205, (R)-(5-(1,5-dimethyl-1H-pyrazol-4-yl)-1,3,4-oxadiazol-2-yl)(4-(4-(trifluoromethyl)pyrazolo[1,5-a]pyridin-2-yl)-6,7-dihydro-1H-imidazo[4,5-c]pyridin-5(4H)-yl)methanone]"
12,0.5 to 1 µM,"COc1cccn2nc([C@@H]3c4nc[nH]c4CCN3C(=O)c3nnc(-c4cnn(C)c4C)o3)cc12 [Example 1206, (S)-(5-(1,5-dimethyl-1H-pyrazol-4-yl)-1,3,4-oxadiazol-2-yl)(4-(4-methoxypyrazolo[1,5-a]pyridin-2-yl)-6,7-dihydro-1H-imidazo[4,5-c]pyridin-5(4H)-yl)methanone]"
13,< 0.5 µM,"Cc1c(-c2nnc(C(=O)N3CCc4[nH]cnc4[C@H]3c3cc4cccc(Cl)n4n3)o2)cnn1C [Example 1208, (S)-(4-(7-chloropyrazolo[1,5-a]pyridin-2-yl)-6,7-dihydro-1H-imidazo[4,5-c]pyridin-5(4H)-yl)(5-(1,5-dimethyl-1H-pyrazol-4-yl)-1,3,4-oxadiazol-2-yl)methanone]"
14,> 5 µM,"Cc1c(-c2nnc(C(=O)N3CCc4[nH]cnc4[C@@H]3c3cc4cccc(Cl)n4n3)o2)cnn1C [Example 1209, (R)-(4-(7-chloropyrazolo[1,5-a]pyridin-2-yl)-6,7-dihydro-1H-imidazo[4,5-c]pyridin-5(4H)-yl)(5-(1,5-dimethyl-1H-pyrazol-4-yl)-1,3,4-oxadiazol-2-yl)methanone]"
15,0.5 to 1 µM,"Cc1nc(C(C)(C)O)oc1C(=O)N1CCc2[nH]cnc2[C@H]1c1cc2cccc(Cl)n2n1 [Example 1210, (S)-(4-(7-chloropyrazolo[1,5-a]pyridin-2-yl)-6,7-dihydro-1H-imidazo[4,5-c]pyridin-5(4H)-yl)(2-(2-hydroxypropan-2-yl)-4-methyloxazol-5-yl)methanone]"
16,0.5 to 1 µM,"Cc1nc([C@H](C)O)oc1C(=O)N1CCc2[nH]cnc2[C@H]1c1cc2cccc(Cl)n2n1 [Example 1212, ((S)-4-(7-chloropyrazolo[1,5-a]pyridin-2-yl)-6,7-dihydro-1H-imidazo[4,5-c]pyridin-5(4H)-yl)(2-((S)-1-hydroxyethyl)-4-methyloxazol-5-yl)methanone]"
17,> 5 µM,"Cc1c(-c2nnc(C(=O)N3CCc4[nH]cnc4[C@@H]3c3cc4c(Cl)cccn4n3)o2)cnn1C [Example 1215, (R)-(4-(4-chloropyrazolo[1,5-a]pyridin-2-yl)-6,7-dihydro-1H-imidazo[4,5-c]pyridin-5(4H)-yl)(5-(1,5-dimethyl-1H-pyrazol-4-yl)-1,3,4-oxadiazol-2-yl)methanone]"
18,< 0.5 µM,"Cc1cccn2nc([C@H]3c4nc[nH]c4CCN3C(=O)c3oc(C(C)(C)F)nc3C(F)F)cc12 [Example 1217, (R)-(4-(difluoromethyl)-2-(2-fluoropropan-2-yl)oxazol-5-yl)(4-(4-methylpyrazolo[1,5-a]pyridin-2-yl)-6,7-dihydro-1H-imidazo[4,5-c]pyridin-5(4H)-yl)methanone]"
19,0.5 to 1 µM,"CC(C)(F)c1nc(C(F)F)c(C(=O)N2CCc3[nH]cnc3[C@@H]2c2cc3c(C(F)(F)F)cccn3n2)o1 [Example 1219, (R)-(4-(difluoromethyl)-2-(2-fluoropropan-2-yl)oxazol-5-yl)(4-(4-(trifluoromethyl)pyrazolo[1,5-a]pyridin-2-yl)-6,7-dihydro-1H-imidazo[4,5-c]pyridin-5(4H)-yl)methanone]"
20,1 to 5 µM,"Cc1cccn2nc([C@H]3c4nc[nH]c4CCN3C(=O)c3oc(C4(O)CC4)nc3C(F)F)cc12 [Example 1221, (R)-(4-(difluoromethyl)-2-(1-hydroxycyclopropyl)oxazol-5-yl)(4-(4-methylpyrazolo[1,5-a]pyridin-2-yl)-6,7-dihydro-1H-imidazo[4,5-c]pyridin-5(4H)-yl)methanone]"
21,< 0.5 µM,"O=C(c1oc(C2(O)CC2)nc1C(F)F)N1CCc2[nH]cnc2[C@H]1c1cc2c(C(F)(F)F)cccn2n1 [Example 1222, (S)-(4-(difluoromethyl)-2-(1-hydroxycyclopropyl)oxazol-5-yl)(4-(4-(trifluoromethyl)pyrazolo[1,5-a]pyridin-2-yl)-6,7-dihydro-1H-imidazo[4,5-c]pyridin-5(4H)-yl)methanone]"
22,1 to 5 µM,"O=C(c1oc(C2(O)CC2)nc1C(F)F)N1CCc2[nH]cnc2[C@@H]1c1cc2c(C(F)(F)F)cccn2n1 [Example 1223, (R)-(4-(difluoromethyl)-2-(1-hydroxycyclopropyl)oxazol-5-yl)(4-(4-(trifluoromethyl)pyrazolo[1,5-a]pyridin-2-yl)-6,7-dihydro-1H-imidazo[4,5-c]pyridin-5(4H)-yl)methanone]"
23,1 to 5 µM,"Cn1cc(-c2nnc(C(=O)N3CCc4[nH]cnc4[C@@H]3c3cc4cccc(F)n4n3)o2)cn1 [Example 1225, (R)-(4-(7-fluoropyrazolo[1,5-a]pyridin-2-yl)-6,7-dihydro-1H-imidazo[4,5-c]pyridin-5(4H)-yl)(5-(1-methyl-1H-pyrazol-4-yl)-1,3,4-oxadiazol-2-yl)methanone]"
24,< 0.5 µM,"CC(C)(F)c1nc(C(F)F)c(C(=O)N2CCc3[nH]cnc3[C@H]2c2cc3c(F)cccn3n2)o1 [Example 1226, (S)-(4-(difluoromethyl)-2-(2-fluoropropan-2-yl)oxazol-5-yl)(4-(4-fluoropyrazolo[1,5-a]pyridin-2-yl)-6,7-dihydro-1H-imidazo[4,5-c]pyridin-5(4H)-yl)methanone]"
